Experiments:
potassium arsenate = compound: O=[As]([O-])(O)O.[K+] [potassium arsenate]; experiment: thermal stability z-score vs DMSO; higher = more thermally stabilized by treatment; details: HeLa; arsenate concentration 1 mM
Experimental: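 Cellular thermal proteome profiling in HeLa cells treated with 1 mM arsenate for 1 h (DMSO pretreatment), heated to ten temperatures (37-66.3 °C). Soluble protein was quantified by TMT mass spectrometry relative to DMSO controls; the thermal stability score was transformed to a z-score; mean of n = 3 experiments.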

lipoamide = compound: NC(=O)CCCCC1CCSS1 [lipoamide]; experiment: as above; details: HeLa, lipoamide concentration 100 µM
Experimental: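 Cellular thermal proteome profiling in HeLa cells. Cells were treated with 100 µM lipoamide for 1 h, with or without 1 mM arsenate for a further 1 h, then heated to ten temperatures (37-66.3 °C), and soluble protein was quantified by TMT mass spectrometry relative to 0.1% DMSO controls. The thermal stability score (sum of log2 fold changes minus the abundance score) was transformed to a z-score; mean of n = 3 experiments.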

[1] = arsenate co-treatment: 1 mM arsenate 1 h
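Also: each temperature applied for 3 min, abundance score taken as mean log2 fold change at the two lowest temperatures, z-score obtained by mean subtraction and division by SD.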

## KNSTRN (UniProt Q9Y448)
Potassium arsenate
  thermal stability z-score: 1.36
lipoamide; [1]
  thermal stability z-score: -0.729
lipoamide; arsenate co-treatment: none
  thermal stability z-score: -0.171

## KNTC1 (UniProt P50748)
Potassium arsenate
  thermal stability z-score: 0.572
lipoamide; [1]
  thermal stability z-score: -0.59
lipoamide; arsenate co-treatment: none
  thermal stability z-score: -0.253

## KPNA1 (UniProt P52294)
Potassium arsenate
  thermal stability z-score: 0.239
lipoamide; [1]
  thermal stability z-score: -0.0607
lipoamide; arsenate co-treatment: none
  thermal stability z-score: -0.0226

## KPNA2 (UniProt P52292)
Potassium arsenate
  thermal stability z-score: -0.353
lipoamide; [1]
  thermal stability z-score: 0.22
lipoamide; arsenate co-treatment: none
  thermal stability z-score: -0.118

## KPNA3 (UniProt O00505)
Potassium arsenate
  thermal stability z-score: -0.288
lipoamide; [1]
  thermal stability z-score: -1.01
lipoamide; arsenate co-treatment: none
  thermal stability z-score: -0.146

## KPNA4 (UniProt O00629)
Potassium arsenate
  thermal stability z-score: 0.399
lipoamide; [1]
  thermal stability z-score: 0.791
lipoamide; arsenate co-treatment: none
  thermal stability z-score: 0.48

## KPNA6 (UniProt O60684)
Potassium arsenate
  thermal stability z-score: 0.446
lipoamide; [1]
  thermal stability z-score: -0.328
lipoamide; arsenate co-treatment: none
  thermal stability z-score: -0.314

## KPNB1 (UniProt Q14974)
Potassium arsenate
  thermal stability z-score: 0.0471
lipoamide; [1]
  thermal stability z-score: -0.211
lipoamide; arsenate co-treatment: none
  thermal stability z-score: 0.374

## KRAS (UniProt P01116)
Potassium arsenate
  thermal stability z-score: 0.184
lipoamide; [1]
  thermal stability z-score: 0.168
lipoamide; arsenate co-treatment: none
  thermal stability z-score: 0.186

## KRI1 (UniProt Q8N9T8)
Potassium arsenate
  thermal stability z-score: -0.376
lipoamide; [1]
  thermal stability z-score: 0.198
lipoamide; arsenate co-treatment: none
  thermal stability z-score: -0.118

## KRR1 (UniProt Q13601)
Potassium arsenate
  thermal stability z-score: -0.512
lipoamide; [1]
  thermal stability z-score: -0.00732
lipoamide; arsenate co-treatment: none
  thermal stability z-score: 0.0711

## KTI12 (UniProt Q96EK9)
Potassium arsenate
  thermal stability z-score: -0.224
lipoamide; [1]
  thermal stability z-score: 0.014
lipoamide; arsenate co-treatment: none
  thermal stability z-score: -0.222

## KTN1 (UniProt Q86UP2)
Potassium arsenate
  thermal stability z-score: 0.294
lipoamide; [1]
  thermal stability z-score: 0.265
lipoamide; arsenate co-treatment: none
  thermal stability z-score: 0.505

## KXD1 (UniProt Q9BQD3)
Potassium arsenate
  thermal stability z-score: 0.28
lipoamide; [1]
  thermal stability z-score: 0.543
lipoamide; arsenate co-treatment: none
  thermal stability z-score: 0.711

## KYAT3 (UniProt Q6YP21)
Potassium arsenate
  thermal stability z-score: -0.182
lipoamide; [1]
  thermal stability z-score: -0.0731
lipoamide; arsenate co-treatment: none
  thermal stability z-score: 0.185

## KYNU (UniProt Q16719)
Potassium arsenate
  thermal stability z-score: 0.0266
lipoamide; [1]
  thermal stability z-score: 0.77
lipoamide; arsenate co-treatment: none
  thermal stability z-score: 0.403

## L1CAM (UniProt P32004)
Potassium arsenate
  thermal stability z-score: -0.0837
lipoamide; [1]
  thermal stability z-score: 0.0694
lipoamide; arsenate co-treatment: none
  thermal stability z-score: -0.375

## L2HGDH (UniProt Q9H9P8)
Potassium arsenate
  thermal stability z-score: 0.523
lipoamide; [1]
  thermal stability z-score: -0.736
lipoamide; arsenate co-treatment: none
  thermal stability z-score: -0.362

## LACE1 (UniProt Q8WV93)
Potassium arsenate
  thermal stability z-score: -0.0299
lipoamide; [1]
  thermal stability z-score: 0.0464
lipoamide; arsenate co-treatment: none
  thermal stability z-score: 0.0601

## LACTB2 (UniProt Q53H82)
Potassium arsenate
  thermal stability z-score: -0.335
lipoamide; [1]
  thermal stability z-score: -0.112
lipoamide; arsenate co-treatment: none
  thermal stability z-score: -0.0753

## LACTB (UniProt P83111)
UniProt P83111, sequence (P83111 whole entry): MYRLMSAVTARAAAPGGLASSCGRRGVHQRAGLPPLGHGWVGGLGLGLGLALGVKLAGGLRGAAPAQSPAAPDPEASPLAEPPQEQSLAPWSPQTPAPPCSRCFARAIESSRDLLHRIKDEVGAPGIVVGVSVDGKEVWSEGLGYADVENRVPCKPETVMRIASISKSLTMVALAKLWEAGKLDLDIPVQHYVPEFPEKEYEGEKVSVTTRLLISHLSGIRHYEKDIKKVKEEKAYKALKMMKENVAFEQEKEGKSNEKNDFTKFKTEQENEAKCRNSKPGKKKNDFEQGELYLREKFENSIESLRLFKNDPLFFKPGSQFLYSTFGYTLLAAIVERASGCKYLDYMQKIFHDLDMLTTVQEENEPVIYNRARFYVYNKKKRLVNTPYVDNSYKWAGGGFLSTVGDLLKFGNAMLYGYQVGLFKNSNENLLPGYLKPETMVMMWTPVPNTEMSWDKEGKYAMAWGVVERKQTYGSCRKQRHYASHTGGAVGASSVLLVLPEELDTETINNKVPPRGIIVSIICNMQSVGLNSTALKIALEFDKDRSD
Potassium arsenate
  thermal stability z-score: -0.604
lipoamide; [1]
  thermal stability z-score: -0.437
lipoamide; arsenate co-treatment: none
  thermal stability z-score: -0.129

## LAMA1 (UniProt P25391)
Potassium arsenate
  thermal stability z-score: 1.13
lipoamide; [1]
  thermal stability z-score: -2
lipoamide; arsenate co-treatment: none
  thermal stability z-score: -1.82

## LAMA3 (UniProt Q16787)
Potassium arsenate
  thermal stability z-score: 0.34
lipoamide; [1]
  thermal stability z-score: 0.341
lipoamide; arsenate co-treatment: none
  thermal stability z-score: -0.204

## LAMA5 (UniProt O15230)
UniProt O15230, sequence (O15230 whole entry): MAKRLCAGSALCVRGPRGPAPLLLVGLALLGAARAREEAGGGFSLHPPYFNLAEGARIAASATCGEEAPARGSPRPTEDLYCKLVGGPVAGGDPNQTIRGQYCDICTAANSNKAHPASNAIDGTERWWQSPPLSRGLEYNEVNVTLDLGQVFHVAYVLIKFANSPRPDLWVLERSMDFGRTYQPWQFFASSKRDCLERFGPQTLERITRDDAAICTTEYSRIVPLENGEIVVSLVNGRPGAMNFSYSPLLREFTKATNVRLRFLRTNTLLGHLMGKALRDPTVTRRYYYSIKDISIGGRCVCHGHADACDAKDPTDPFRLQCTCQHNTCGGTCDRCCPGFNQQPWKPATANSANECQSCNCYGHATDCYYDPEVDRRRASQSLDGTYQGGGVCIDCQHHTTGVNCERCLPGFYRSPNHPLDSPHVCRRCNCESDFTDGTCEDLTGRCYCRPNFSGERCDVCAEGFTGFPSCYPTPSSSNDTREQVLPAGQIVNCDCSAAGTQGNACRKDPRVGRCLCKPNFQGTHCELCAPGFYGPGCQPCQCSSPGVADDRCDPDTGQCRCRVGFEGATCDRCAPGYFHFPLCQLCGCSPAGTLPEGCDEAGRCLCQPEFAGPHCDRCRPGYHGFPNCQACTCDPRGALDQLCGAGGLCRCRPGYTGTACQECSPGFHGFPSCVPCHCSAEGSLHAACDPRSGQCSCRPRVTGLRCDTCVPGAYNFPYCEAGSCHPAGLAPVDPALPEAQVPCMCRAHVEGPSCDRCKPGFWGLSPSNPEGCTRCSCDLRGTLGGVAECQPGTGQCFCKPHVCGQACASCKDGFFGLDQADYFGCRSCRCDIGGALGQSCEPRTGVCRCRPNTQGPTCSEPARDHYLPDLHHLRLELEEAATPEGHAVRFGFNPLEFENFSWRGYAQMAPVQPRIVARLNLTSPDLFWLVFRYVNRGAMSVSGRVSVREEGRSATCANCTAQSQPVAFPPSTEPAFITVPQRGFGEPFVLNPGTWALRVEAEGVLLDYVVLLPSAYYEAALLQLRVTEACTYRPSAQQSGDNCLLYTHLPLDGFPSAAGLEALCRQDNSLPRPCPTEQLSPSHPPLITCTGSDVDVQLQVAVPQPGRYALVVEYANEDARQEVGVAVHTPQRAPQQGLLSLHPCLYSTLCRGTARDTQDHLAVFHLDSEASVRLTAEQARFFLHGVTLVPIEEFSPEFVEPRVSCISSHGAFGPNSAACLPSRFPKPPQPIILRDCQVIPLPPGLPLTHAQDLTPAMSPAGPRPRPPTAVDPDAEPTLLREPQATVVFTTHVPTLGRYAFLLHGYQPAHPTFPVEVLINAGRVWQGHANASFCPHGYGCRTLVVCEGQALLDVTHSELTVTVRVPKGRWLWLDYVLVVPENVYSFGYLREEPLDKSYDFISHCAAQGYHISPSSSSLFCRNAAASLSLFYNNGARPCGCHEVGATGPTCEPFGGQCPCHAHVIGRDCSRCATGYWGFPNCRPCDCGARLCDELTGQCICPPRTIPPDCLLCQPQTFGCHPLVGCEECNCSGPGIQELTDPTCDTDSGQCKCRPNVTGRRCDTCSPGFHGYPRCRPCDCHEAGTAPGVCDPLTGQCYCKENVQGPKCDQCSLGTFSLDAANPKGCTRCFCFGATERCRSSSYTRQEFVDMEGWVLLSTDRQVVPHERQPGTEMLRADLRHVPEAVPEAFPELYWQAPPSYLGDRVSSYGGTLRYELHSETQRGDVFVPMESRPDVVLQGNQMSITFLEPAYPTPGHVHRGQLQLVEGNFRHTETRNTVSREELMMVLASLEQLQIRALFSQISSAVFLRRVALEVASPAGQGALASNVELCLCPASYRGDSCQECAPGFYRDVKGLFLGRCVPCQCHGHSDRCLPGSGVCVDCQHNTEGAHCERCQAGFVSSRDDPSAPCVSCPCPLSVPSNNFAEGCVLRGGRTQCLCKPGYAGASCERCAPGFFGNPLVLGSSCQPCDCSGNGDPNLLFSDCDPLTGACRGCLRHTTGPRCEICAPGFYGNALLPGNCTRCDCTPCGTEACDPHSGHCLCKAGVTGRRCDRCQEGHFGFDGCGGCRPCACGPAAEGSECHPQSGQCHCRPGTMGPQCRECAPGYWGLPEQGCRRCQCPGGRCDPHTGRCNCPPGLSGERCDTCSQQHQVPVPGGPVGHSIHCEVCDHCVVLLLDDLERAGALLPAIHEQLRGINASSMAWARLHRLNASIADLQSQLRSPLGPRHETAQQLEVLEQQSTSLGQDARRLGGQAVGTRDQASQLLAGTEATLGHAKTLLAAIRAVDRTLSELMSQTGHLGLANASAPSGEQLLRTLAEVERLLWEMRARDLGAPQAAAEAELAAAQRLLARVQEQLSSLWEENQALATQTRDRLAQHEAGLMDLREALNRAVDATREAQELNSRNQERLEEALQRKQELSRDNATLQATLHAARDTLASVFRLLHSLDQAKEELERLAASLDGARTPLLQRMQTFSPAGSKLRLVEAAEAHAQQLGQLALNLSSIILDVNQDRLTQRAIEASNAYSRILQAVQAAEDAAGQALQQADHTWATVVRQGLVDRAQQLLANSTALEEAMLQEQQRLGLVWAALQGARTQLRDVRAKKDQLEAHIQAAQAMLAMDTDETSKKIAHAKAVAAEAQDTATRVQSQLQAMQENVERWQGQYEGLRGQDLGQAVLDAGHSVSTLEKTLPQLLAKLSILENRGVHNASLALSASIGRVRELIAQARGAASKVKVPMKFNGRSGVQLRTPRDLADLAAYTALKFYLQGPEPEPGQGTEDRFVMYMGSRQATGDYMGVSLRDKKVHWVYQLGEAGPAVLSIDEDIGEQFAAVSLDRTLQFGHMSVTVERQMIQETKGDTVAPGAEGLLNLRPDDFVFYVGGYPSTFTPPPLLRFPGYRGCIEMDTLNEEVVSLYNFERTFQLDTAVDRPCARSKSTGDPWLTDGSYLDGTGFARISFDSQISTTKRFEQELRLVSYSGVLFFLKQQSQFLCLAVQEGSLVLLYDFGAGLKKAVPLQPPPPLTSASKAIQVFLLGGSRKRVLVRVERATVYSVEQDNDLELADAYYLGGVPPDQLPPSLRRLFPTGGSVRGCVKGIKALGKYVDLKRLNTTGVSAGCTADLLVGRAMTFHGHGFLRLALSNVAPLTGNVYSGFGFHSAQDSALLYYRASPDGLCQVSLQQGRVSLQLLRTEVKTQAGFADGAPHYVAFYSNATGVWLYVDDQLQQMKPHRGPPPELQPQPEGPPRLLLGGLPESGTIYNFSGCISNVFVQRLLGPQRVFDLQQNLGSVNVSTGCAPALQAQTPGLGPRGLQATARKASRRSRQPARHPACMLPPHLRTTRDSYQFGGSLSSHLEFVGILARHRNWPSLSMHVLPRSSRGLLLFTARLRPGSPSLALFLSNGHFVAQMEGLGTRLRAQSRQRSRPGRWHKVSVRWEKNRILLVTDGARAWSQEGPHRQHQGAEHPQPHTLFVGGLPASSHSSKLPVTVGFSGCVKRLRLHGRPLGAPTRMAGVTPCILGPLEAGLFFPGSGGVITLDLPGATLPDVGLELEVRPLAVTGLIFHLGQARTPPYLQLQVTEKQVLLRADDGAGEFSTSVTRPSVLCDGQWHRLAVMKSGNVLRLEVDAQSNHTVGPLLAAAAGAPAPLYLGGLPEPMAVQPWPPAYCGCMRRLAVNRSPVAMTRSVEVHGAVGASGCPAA
Potassium arsenate
  thermal stability z-score: 0.045
lipoamide; [1]
  thermal stability z-score: -1.26
lipoamide; arsenate co-treatment: none
  thermal stability z-score: -0.93

## LAMB1 (UniProt P07942)
Potassium arsenate
  thermal stability z-score: 0.724
lipoamide; [1]
  thermal stability z-score: -3.22
lipoamide; arsenate co-treatment: none
  thermal stability z-score: -2.66

## LAMB2 (UniProt P55268)
Potassium arsenate
  thermal stability z-score: -0.248
lipoamide; [1]
  thermal stability z-score: -1.69
lipoamide; arsenate co-treatment: none
  thermal stability z-score: -1.75

## LAMB3 (UniProt Q13751)
Potassium arsenate
  thermal stability z-score: 0.108
lipoamide; [1]
  thermal stability z-score: -1.92
lipoamide; arsenate co-treatment: none
  thermal stability z-score: -1.59

## LAMC1 (UniProt P11047)
Potassium arsenate
  thermal stability z-score: 1.15
lipoamide; [1]
  thermal stability z-score: -2.97
lipoamide; arsenate co-treatment: none
  thermal stability z-score: -2.6

## LAMP1 (UniProt P11279)
Potassium arsenate
  thermal stability z-score: -0.0209
lipoamide; [1]
  thermal stability z-score: 0.396
lipoamide; arsenate co-treatment: none
  thermal stability z-score: 0.531

## LAMP2 (UniProt P13473)
Potassium arsenate
  thermal stability z-score: 0.0434
lipoamide; [1]
  thermal stability z-score: -0.0628
lipoamide; arsenate co-treatment: none
  thermal stability z-score: -0.138

## LAMTOR1 (UniProt Q6IAA8)
Potassium arsenate
  thermal stability z-score: 0.827
lipoamide; [1]
  thermal stability z-score: 1.14
lipoamide; arsenate co-treatment: none
  thermal stability z-score: 0.655

## LAMTOR2 (UniProt Q9Y2Q5)
Potassium arsenate
  thermal stability z-score: 0.135
lipoamide; [1]
  thermal stability z-score: 0.266
lipoamide; arsenate co-treatment: none
  thermal stability z-score: 0.19

## LAMTOR3 (UniProt Q9UHA4)
UniProt Q9UHA4, sequence (Q9UHA4 whole entry): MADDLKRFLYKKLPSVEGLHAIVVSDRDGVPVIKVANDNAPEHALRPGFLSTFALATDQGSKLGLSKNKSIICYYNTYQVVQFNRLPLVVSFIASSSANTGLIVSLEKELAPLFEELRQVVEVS
Potassium arsenate
  thermal stability z-score: -0.713
lipoamide; [1]
  thermal stability z-score: 1.21
lipoamide; arsenate co-treatment: none
  thermal stability z-score: 0.41

## LAMTOR5 (UniProt O43504)
Potassium arsenate
  thermal stability z-score: 0.0111
lipoamide; [1]
  thermal stability z-score: -0.306
lipoamide; arsenate co-treatment: none
  thermal stability z-score: -0.405

## LANCL1 (UniProt O43813)
UniProt O43813, sequence (O43813 whole entry): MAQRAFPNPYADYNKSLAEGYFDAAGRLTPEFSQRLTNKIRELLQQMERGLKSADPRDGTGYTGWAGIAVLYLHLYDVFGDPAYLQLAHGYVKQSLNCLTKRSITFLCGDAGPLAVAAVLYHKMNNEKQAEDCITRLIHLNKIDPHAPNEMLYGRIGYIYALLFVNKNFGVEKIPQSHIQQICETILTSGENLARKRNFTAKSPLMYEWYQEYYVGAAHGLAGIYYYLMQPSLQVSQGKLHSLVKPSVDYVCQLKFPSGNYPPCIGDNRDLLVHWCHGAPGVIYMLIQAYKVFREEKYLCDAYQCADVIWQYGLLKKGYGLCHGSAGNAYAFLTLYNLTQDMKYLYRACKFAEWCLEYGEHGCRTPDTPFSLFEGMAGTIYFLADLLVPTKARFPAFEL
Potassium arsenate
  thermal stability z-score: 0.0783
lipoamide; [1]
  thermal stability z-score: 0.232
lipoamide; arsenate co-treatment: none
  thermal stability z-score: 0.164

## LANCL2 (UniProt Q9NS86)
Potassium arsenate
  thermal stability z-score: -0.393
lipoamide; [1]
  thermal stability z-score: -1.13
lipoamide; arsenate co-treatment: none
  thermal stability z-score: -0.454

## LAP3 (UniProt P28838)
Potassium arsenate
  thermal stability z-score: 1.29
lipoamide; [1]
  thermal stability z-score: 0.405
lipoamide; arsenate co-treatment: none
  thermal stability z-score: 0.407

## LARP1 (UniProt Q6PKG0)
Potassium arsenate
  thermal stability z-score: 1.03
lipoamide; [1]
  thermal stability z-score: 0.375
lipoamide; arsenate co-treatment: none
  thermal stability z-score: 0.88

## LARP4 (UniProt Q71RC2)
Potassium arsenate
  thermal stability z-score: -0.708
lipoamide; [1]
  thermal stability z-score: -0.463
lipoamide; arsenate co-treatment: none
  thermal stability z-score: -0.301

## LARP4B (UniProt Q92615)
Potassium arsenate
  thermal stability z-score: -0.111
lipoamide; [1]
  thermal stability z-score: 0.048
lipoamide; arsenate co-treatment: none
  thermal stability z-score: 0.174

## LARP7 (UniProt Q4G0J3)
Potassium arsenate
  thermal stability z-score: 0.0679
lipoamide; [1]
  thermal stability z-score: 0.34
lipoamide; arsenate co-treatment: none
  thermal stability z-score: 0.152

## LARS2 (UniProt Q15031)
Potassium arsenate
  thermal stability z-score: -0.741
lipoamide; [1]
  thermal stability z-score: -0.0508
lipoamide; arsenate co-treatment: none
  thermal stability z-score: 0.0433

## LARS (UniProt Q9P2J5)
Potassium arsenate
  thermal stability z-score: 0.86
lipoamide; [1]
  thermal stability z-score: -0.63
lipoamide; arsenate co-treatment: none
  thermal stability z-score: 0.0502

## LAS1L (UniProt Q9Y4W2)
Potassium arsenate
  thermal stability z-score: -0.116
lipoamide; [1]
  thermal stability z-score: -0.0675
lipoamide; arsenate co-treatment: none
  thermal stability z-score: -0.132

## LASP1 (UniProt Q14847)
Potassium arsenate
  thermal stability z-score: -0.178
lipoamide; [1]
  thermal stability z-score: 0.387
lipoamide; arsenate co-treatment: none
  thermal stability z-score: 0.383

## LATS1 (UniProt O95835)
Potassium arsenate
  thermal stability z-score: -0.0262
lipoamide; [1]
  thermal stability z-score: -0.183
lipoamide; arsenate co-treatment: none
  thermal stability z-score: -0.189

## LBR (UniProt Q14739)
Potassium arsenate
  thermal stability z-score: 0.0853
lipoamide; [1]
  thermal stability z-score: -0.0763
lipoamide; arsenate co-treatment: none
  thermal stability z-score: -0.097

## LCLAT1 (UniProt Q6UWP7)
Potassium arsenate
  thermal stability z-score: -2.38
lipoamide; [1]
  thermal stability z-score: 1.1
lipoamide; arsenate co-treatment: none
  thermal stability z-score: 0.0592

## LCMT1 (UniProt Q9UIC8)
UniProt Q9UIC8, sequence (Q9UIC8 whole entry): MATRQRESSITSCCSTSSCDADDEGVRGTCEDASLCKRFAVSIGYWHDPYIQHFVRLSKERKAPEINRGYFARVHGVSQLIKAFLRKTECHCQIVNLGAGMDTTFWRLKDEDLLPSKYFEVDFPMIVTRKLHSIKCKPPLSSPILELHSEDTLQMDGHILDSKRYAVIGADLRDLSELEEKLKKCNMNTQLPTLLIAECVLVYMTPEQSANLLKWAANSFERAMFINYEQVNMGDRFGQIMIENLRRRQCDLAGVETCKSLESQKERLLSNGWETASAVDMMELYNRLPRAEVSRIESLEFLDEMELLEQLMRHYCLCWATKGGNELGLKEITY
Potassium arsenate
  thermal stability z-score: -0.0988
lipoamide; [1]
  thermal stability z-score: 0.437
lipoamide; arsenate co-treatment: none
  thermal stability z-score: 0.614

## LCMT2 (UniProt O60294)
Potassium arsenate
  thermal stability z-score: -0.332
lipoamide; [1]
  thermal stability z-score: -0.107
lipoamide; arsenate co-treatment: none
  thermal stability z-score: -0.78

## LDAH (UniProt Q9H6V9)
Potassium arsenate
  thermal stability z-score: 0.0377
lipoamide; [1]
  thermal stability z-score: -0.0856
lipoamide; arsenate co-treatment: none
  thermal stability z-score: -0.00844

## LDB1 (UniProt Q86U70)
Potassium arsenate
  thermal stability z-score: -0.783
lipoamide; [1]
  thermal stability z-score: 0.244
lipoamide; arsenate co-treatment: none
  thermal stability z-score: 1.15

## LDHA (UniProt P00338)
Potassium arsenate
  thermal stability z-score: -0.436
lipoamide; [1]
  thermal stability z-score: 0.685
lipoamide; arsenate co-treatment: none
  thermal stability z-score: 0.577

## LDHB (UniProt P07195)
Potassium arsenate
  thermal stability z-score: 0.13
lipoamide; [1]
  thermal stability z-score: 0.679
lipoamide; arsenate co-treatment: none
  thermal stability z-score: 0.658

## LDLR (UniProt P01130)
Potassium arsenate
  thermal stability z-score: -0.0946
lipoamide; [1]
  thermal stability z-score: 0.0821
lipoamide; arsenate co-treatment: none
  thermal stability z-score: -0.206

— the supplement of paper PMC12463676, “Small-molecule dissolution of stress granules by redox modulation benefits ALS models” (Nature Chemical Biology, 2025)
